ChEMBL document CHEMBL1158854, “Antimycobacterial polyynes of Devil's Club (Oplopanax horridus), a North American native medicinal plant” (1997)
Converted amounts (≈) assume the structure as drawn. The source made the active and inactive calls. The calls are words filed in the database; no cut-off is given here.

Legend:
Staphylococcus aureus [1] = test: Antimicrobial activity against methicillin-susceptible Staphylococcus aureus RN4220 by twofold serial microbroth dilution method; assay type: functional
Escherichia coli [2] = test: Antimicrobial activity against Escherichia coli UB1005 by twofold serial microbroth dilution method; assay type: functional
Mycobacterium avium [3] = test: Antimycobacterial activity against isoniazid-resistant Mycobacterium avium at 20 ug/disk by disk diffusion assay; assay type: functional, organism-based
Bacillus subtilis = test: Antimicrobial activity against Bacillus subtilis UBC221 by twofold serial microbroth dilution method; assay type: functional
Mycobacterium avium [4] = test: Antimycobacterial activity against isoniazid-resistant Mycobacterium avium at 100 ug/disk by disk diffusion assay; assay type: functional, organism-based
[5] = system: Mycobacterium tuberculosis; test: Antimycobacterial activity against Mycobacterium tuberculosis at 100 ug/disk by disk diffusion assay; assay type: functional, organism-based
[6] = system: Mycobacterium tuberculosis; test: Antimycobacterial activity against Mycobacterium tuberculosis at 20 ug/disk by disk diffusion assay; assay type: functional, organism-based
Pseudomonas aeruginosa [7] = test: Antimicrobial activity against Pseudomonas aeruginosa Z61 by twofold serial microbroth dilution method; assay type: functional
Candida albicans = test: Antimicrobial activity against Candida albicans UBC54 by twofold serial microbroth dilution method; assay type: functional
Escherichia coli [8] = test: Antimicrobial activity against Escherichia coli DC2 by twofold serial microbroth dilution method; assay type: functional
Pseudomonas aeruginosa [9] = test: Antimicrobial activity against Pseudomonas aeruginosa K799 by twofold serial microbroth dilution method; assay type: functional
Staphylococcus aureus [10] = test: Antimicrobial activity against methicillin-resistant Staphylococcus aureus SAP00017 by twofold serial microbroth dilution method; assay type: functional
[11] = system: Mycobacterium tuberculosis; test: Antimycobacterial activity against Mycobacterium tuberculosis at 10 ug/disk by disk diffusion assay; assay type: functional, organism-based
Mycobacterium avium [12] = test: Antimycobacterial activity against isoniazid-resistant Mycobacterium avium at 10 ug/disk by disk diffusion assay; assay type: functional, organism-based

Compound | MIC (Staphylococcus aureus [1]) | MIC (Escherichia coli [2]) | Activity (Mycobacterium avium [3]) | MIC (Bacillus subtilis) | Activity (Mycobacterium avium [4]) | Activity [5] | Activity [6] | MIC (Pseudomonas aeruginosa [7]) | MIC (Candida albicans) | MIC (Escherichia coli [8]) | MIC (Pseudomonas aeruginosa [9]) | MIC (Staphylococcus aureus [10]) | Activity [11] | Activity (Mycobacterium avium [12])
C=C[C@H](O)C#CC#CC/C=C\CCCCCCC [FALCARINOL] | 3.1 µg/mL (≈ 12.7 µM) | > 50 µg/mL | Active | 3.1 µg/mL (≈ 12.7 µM) | Active | Active | Active | 6.25 µg/mL (≈ 25.6 µM) | 6.25 µg/mL (≈ 25.6 µM) | 6.25 µg/mL (≈ 25.6 µM) | > 50 µg/mL | 3.1 µg/mL (≈ 12.7 µM) |  | 
CC[C@H](O)C#CC#C[C@@H](O)/C=C\CCCCCCCCOC(C)=O [OPLOPANDIOL ACETATE] | 50 µg/mL | > 50 µg/mL | Active | 25 µg/mL | Active | Active | Active | > 50 µg/mL | > 50 µg/mL | > 50 µg/mL | > 50 µg/mL | > 50 µg/mL |  | 
GENTAMICIN | 0.6 µg/mL | 1.25 µg/mL |  | 1.25 µg/mL |  |  |  | 0.6 µg/mL |  | 0.6 µg/mL | 1.25 µg/mL | > 10 µg/mL |  | 
COc1cccc(OC)c1C(=O)N[C@@H]1C(=O)N2[C@@H]1SC(C)(C)[C@@H]2C(=O)O [METHICILLIN] | 1.6 µg/mL (≈ 4.21 µM) | > 100 µg/mL |  | 100 µg/mL (≈ 263 µM) |  |  |  | 3.1 µg/mL (≈ 8.15 µM) | > 100 µg/mL | 1.6 µg/mL (≈ 4.21 µM) | > 100 µg/mL |  |  | 
C=C[C@@H](O)C#CC#C[C@@H](O)/C=C\CCCCCCC [FALCARINDIOL] | 25 µg/mL (≈ 96 µM) | > 50 µg/mL | Active | 6.25 µg/mL (≈ 24 µM) | Active | Active |  | 50 µg/mL (≈ 192 µM) | 25 µg/mL (≈ 96 µM) | 25 µg/mL (≈ 96 µM) | > 50 µg/mL | 25 µg/mL (≈ 96 µM) |  | 
C=C[C@H](O)C#CC#C[C@@H](O)/C=C\CCCCCCCCOC(C)=O | 50 µg/mL (≈ 150 µM) | > 50 µg/mL | Active | 25 µg/mL (≈ 75.2 µM) | Active | Active |  | > 50 µg/mL | > 50 µg/mL | > 50 µg/mL | > 50 µg/mL | > 50 µg/mL |  | 
CCCCCCC/C=C\[C@H](O)C#CC#C[C@@H](O)CC [OPLOPANDIOL] | 6.25 µg/mL (≈ 23.8 µM) | > 50 µg/mL |  | 6.25 µg/mL (≈ 23.8 µM) | Active | Active |  | > 50 µg/mL | 12.5 µg/mL (≈ 47.6 µM) | 6.25 µg/mL (≈ 23.8 µM) | > 50 µg/mL | 6.25 µg/mL (≈ 23.8 µM) |  | 
NNC(=O)c1ccncc1 |  |  | inactive |  | inactive | Active | Active |  |  |  |  |  | Active | inactive
